The NIST ThermoML archive (doi:10.1016/j.jct.2008.09.008)
± gives the expanded uncertainty stated by the source.

Assay: wn = mass fraction of the nth substance listed
Conditions: 101 kPa, Liquid; for viscosity: Capillary tube (Ostwald / Ubbelohde) method; for speed of sound: Linear variable-path acoustic interferometer; for mass density: Pycnometric method

## OCCCCO [1,4-butanediol] + O
298.15 K, w1 = 0.2
  viscosity: 3.421 ± 0.019 mPa·s
  speed of sound: 1605.3 ± 1.8 m/s
  mass density: 1004.93 ± 0.25 kg/m3
298.15 K, w1 = 0.4
  viscosity: 6.454 ± 0.034 mPa·s
  speed of sound: 1684.2 ± 1.9 m/s
  mass density: 1013.41 ± 0.25 kg/m3
303.15 K, w1 = 0.2
  viscosity: 2.966 ± 0.017 mPa·s
  speed of sound: 1606.6 ± 1.8 m/s
  mass density: 1002.93 ± 0.26 kg/m3
303.15 K, w1 = 0.4
  viscosity: 5.738 ± 0.031 mPa·s
  speed of sound: 1677.4 ± 1.8 m/s
  mass density: 1010.75 ± 0.26 kg/m3
308.15 K, w1 = 0.2
  viscosity: 2.542 ± 0.015 mPa·s
  speed of sound: 1607.8 ± 1.8 m/s
  mass density: 1000.79 ± 0.27 kg/m3
308.15 K, w1 = 0.4
  viscosity: 4.993 ± 0.028 mPa·s
  speed of sound: 1670.7 ± 1.8 m/s
  mass density: 1008.04 ± 0.27 kg/m3
313.15 K, w1 = 0.2
  viscosity: 2.142 ± 0.013 mPa·s
  speed of sound: 1608.5 ± 1.8 m/s
  mass density: 998.53 ± 0.28 kg/m3
313.15 K, w1 = 0.4
  viscosity: 4.221 ± 0.024 mPa·s
  speed of sound: 1664 ± 2 m/s
  mass density: 1005.28 ± 0.28 kg/m3
318.15 K, w1 = 0.2
  viscosity: 1.774 ± 0.011 mPa·s
  speed of sound: 1609.3 ± 1.8 m/s
  mass density: 996.15 ± 0.29 kg/m3
318.15 K, w1 = 0.4
  viscosity: 3.421 ± 0.02 mPa·s
  speed of sound: 1657.2 ± 1.8 m/s
  mass density: 1002.46 ± 0.29 kg/m3
